Experimental data published in patent publication US20210045385A1, “PYRIDAZINONE-SUBSTITUTED KETOXIMES AS HERBICIDES” (FMC Corporation, priority 2018, published 2021).

Assays:
Type in all cases: in vivo
[1] = tested on: Italian ryegrass (Lolium multiflorum); assay: Test A preemergence, visual plant response rating; settings: for Ryegrass, Italian plant response rating: 125 g ai/ha, preemergence, 0 to 100 scale, 0 no effect, 100 complete control; for Ryegrass, Italian plant response rating (0 to 100 scale): 500 g ai/ha Preemergence, approx. 10 days
Procedure, shortened: (§1)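 Ratings use a 0–100 visual scale (100 = complete control) against untreated controls, scored about 10 days after greenhouse treatment. Test chemicals were formulated in surfactant-containing non-phytotoxic solvent and applied either as soil spray after planting (preemergence) or onto one- to two-leaf, 2–10 cm plants (postemergence).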

[2] = tested on: barnyardgrass (Echinochloa crus-galli); assay: Test A preemergence, visual plant response rating; settings: for Barnyardgrass plant response rating: 125 g ai/ha, preemergence, 0 to 100 scale, 0 no effect, 100 complete control; for Barnyardgrass plant response rating (0 to 100 scale): 500 g ai/ha Preemergence, approx. 10 days
Procedure, shortened: as §1

[3] = tested on: foxtail, giant (giant foxtail, Setaria faberii); assay: Test A preemergence, visual plant response rating; settings: for Foxtail, Giant plant response rating: 125 g ai/ha, preemergence, 0 to 100 scale, 0 no effect, 100 complete control; for Foxtail, Giant plant response rating (0 to 100 scale): 500 g ai/ha Preemergence, approx. 10 days
Procedure, shortened: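 Formulated in a non-phytotoxic solvent mixture including surfactant, each test chemical was sprayed onto the soil surface after sowing, or onto seedlings 2 to 10 cm high. Roughly 10 days later, plants were compared with untreated controls and rated for injury from 0 (no effect) to 100 (complete control).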

kochia (Kochia scoparia) [4] = assay: Test A preemergence, visual plant response rating; settings: for Kochia plant response rating: 125 g ai/ha, preemergence, 0 to 100 scale, 0 no effect, 100 complete control; for Kochia plant response rating (0 to 100 scale): 500 g ai/ha Preemergence, approx. 10 days
Procedure, shortened: as §1

[5] = tested on: pigweed (Amaranthus retroflexus); assay: Test A preemergence, visual plant response rating; settings: for Pigweed plant response rating: 125 g ai/ha, preemergence, 0 to 100 scale, 0 no effect, 100 complete control; for Pigweed plant response rating (0 to 100 scale): 500 g ai/ha Preemergence, approx. 10 days
Procedure, shortened: as §1

[6] = tested on: ragweed (common ragweed, Ambrosia elatior); assay: Test A preemergence, visual plant response rating; settings: for Ragweed plant response rating: 125 g ai/ha, preemergence, 0 to 100 scale, 0 no effect, 100 complete control; for Ragweed plant response rating (0 to 100 scale): 500 g ai/ha Preemergence, approx. 10 days
Procedure, shortened: as §1

[7] = tested on: Italian ryegrass (Lolium multiflorum); assay: Test A postemergence, visual plant response rating; settings: for Ryegrass, Italian plant response rating (0 to 100 scale): 500 g ai/ha, postemergence, 0 is no effect, 100 is complete control; for Ryegrass, Italian plant response rating: Postemergence, 125 g ai/ha, 0 to 100 scale (0 no effect, 100 complete control)
Procedure, shortened: as §1

[8] = tested on: barnyardgrass (Echinochloa crus-galli); assay: Test A postemergence, visual plant response rating; settings: for Barnyardgrass plant response rating (0 to 100 scale): 500 g ai/ha, postemergence, 0 is no effect, 100 is complete control; for Barnyardgrass plant response rating: Postemergence, 125 g ai/ha, 0 to 100 scale (0 no effect, 100 complete control)
Procedure, shortened: as §1

[9] = tested on: blackgrass (Alopecurus myosuroides); assay: Test A postemergence, visual plant response rating; settings: for Blackgrass plant response rating (0 to 100 scale): 500 g ai/ha, postemergence, 0 is no effect, 100 is complete control; for Blackgrass plant response rating: Postemergence, 125 g ai/ha, 0 to 100 scale (0 no effect, 100 complete control)
Procedure, shortened: as §1

corn (Zea mays) = assay: Test A postemergence, visual plant response rating; settings: for Corn plant response rating (0 to 100 scale): 500 g ai/ha, postemergence, 0 is no effect, 100 is complete control; for Corn plant response rating: Postemergence, 125 g ai/ha, 0 to 100 scale (0 no effect, 100 complete control)
Procedure, shortened: as §1

[10] = tested on: foxtail, giant (giant foxtail, Setaria faberii); assay: Test A postemergence, visual plant response rating; settings: for Foxtail, Giant plant response rating (0 to 100 scale): 500 g ai/ha, postemergence, 0 is no effect, 100 is complete control; for Foxtail, Giant plant response rating: Postemergence, 125 g ai/ha, 0 to 100 scale (0 no effect, 100 complete control)
Procedure, shortened: as §1

[11] = tested on: galium (catchweed bedstraw, Galium aparine); assay: Test A postemergence, visual plant response rating; settings: for Galium plant response rating (0 to 100 scale): 500 g ai/ha, postemergence, 0 is no effect, 100 is complete control; for Galium plant response rating: Postemergence, 125 g ai/ha, 0 to 100 scale (0 no effect, 100 complete control)
Procedure, shortened: as §1

kochia (Kochia scoparia) [12] = assay: Test A postemergence, visual plant response rating; settings: for Kochia plant response rating (0 to 100 scale): 500 g ai/ha, postemergence, 0 is no effect, 100 is complete control; for Kochia plant response rating: Postemergence, 125 g ai/ha, 0 to 100 scale (0 no effect, 100 complete control)
Procedure, shortened: as §1

[13] = tested on: pigweed (Amaranthus retroflexus); assay: Test A postemergence, visual plant response rating; settings: for Pigweed plant response rating (0 to 100 scale): 500 g ai/ha, postemergence, 0 is no effect, 100 is complete control; for Pigweed plant response rating: Postemergence, 125 g ai/ha, 0 to 100 scale (0 no effect, 100 complete control)
Procedure, shortened: as §1

[14] = tested on: ragweed (common ragweed, Ambrosia elatior); assay: Test A postemergence, visual plant response rating; settings: for Ragweed plant response rating (0 to 100 scale): 500 g ai/ha, postemergence, 0 is no effect, 100 is complete control; for Ragweed plant response rating: Postemergence, 125 g ai/ha, 0 to 100 scale (0 no effect, 100 complete control)
Procedure, shortened: as §1

[15] = tested on: wheat (Triticum aestivum); assay: Test A postemergence, visual plant response rating; settings: for Wheat plant response rating (0 to 100 scale): 500 g ai/ha, postemergence, 0 is no effect, 100 is complete control; for Wheat plant response rating: Postemergence, 125 g ai/ha, 0 to 100 scale (0 no effect, 100 complete control)
Procedure, shortened: as §1

[16] = tested on: barnyardgrass (Echinochloa crus-galli); assay: Test B flooded paddy test, visual plant response rating; settings: 250 g ai/ha, Flood, applied to paddy water, 2-leaf stage, evaluated after 13 to 15 days
Procedure, shortened: (§2)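 Compounds added straight into paddy water of pots flooded to 3 cm, with 2-leaf-stage plants of the four species; water level held throughout.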

[17] = tested on: ducksalad (Heteranhera limosa); assay: as above; settings: 250 g ai/ha, Flood, applied to paddy water, 2-leaf stage, evaluated after 13 to 15 days
Procedure, shortened: as §2

rice (Oryza sativa) = assay: as above; settings: 250 g ai/ha, Flood, applied to paddy water, 2-leaf stage, evaluated after 13 to 15 days
Procedure, shortened: as §2

[18] = tested on: sedge, umbrella (small-flower umbrella sedge, Cyperus difformis); assay: as above; settings: 250 g ai/ha, Flood, applied to paddy water, 2-leaf stage, evaluated after 13 to 15 days
Procedure, shortened: as §2

| SMILES | Ryegrass, Italian plant response rating [1] | Ryegrass, Italian plant response rating (0 to 100 scale) [1] | Barnyardgrass plant response rating [2] | Barnyardgrass plant response rating (0 to 100 scale) [2] | Foxtail, Giant plant response rating [3] | Foxtail, Giant plant response rating (0 to 100 scale) [3] | Kochia plant response rating (kochia (Kochia scoparia) [4]) | Kochia plant response rating (0 to 100 scale) (kochia (Kochia scoparia) [4]) | Pigweed plant response rating [5] | Pigweed plant response rating (0 to 100 scale) [5] | Ragweed plant response rating [6] | Ragweed plant response rating (0 to 100 scale) [6] | Ryegrass, Italian plant response rating (0 to 100 scale) [7] | Ryegrass, Italian plant response rating [7] | Barnyardgrass plant response rating (0 to 100 scale) [8] | Barnyardgrass plant response rating [8] | Blackgrass plant response rating (0 to 100 scale) [9] | Blackgrass plant response rating [9] | Corn plant response rating (0 to 100 scale) (corn (Zea mays)) | Corn plant response rating (corn (Zea mays)) | further results |
| --- | --- | --- | --- | --- | --- | --- | --- | --- | --- | --- | --- | --- | --- | --- | --- | --- | --- | --- | --- | --- | --- |
| CO/N=C(/c1c(O)c(C)nn(C)c1=O)c1ccc(F)c2ccccc12 [Compound 75] | 100 | 100 | 30 | 90 | 70 | 100 | 10 | 90 | 60 | 90 | 80 | 100 | 100 | 90 | 70 | 20 | 100 | 90 | 20 | 10 | Foxtail, Giant plant response rating (0 to 100 scale) [10]: 80; Foxtail, Giant plant response rating [10]: 50; Galium plant response rating (0 to 100 scale) [11]: 100; Galium plant response rating [11]: 100; Kochia plant response rating (0 to 100 scale) (kochia (Kochia scoparia) [12]): 90; Kochia plant response rating (kochia (Kochia scoparia) [12]): 70; Pigweed plant response rating (0 to 100 scale) [13]: 90; Pigweed plant response rating [13]: 70; Ragweed plant response rating (0 to 100 scale) [14]: 100; Ragweed plant response rating [14]: 90; Wheat plant response rating (0 to 100 scale) [15]: 80; Wheat plant response rating [15]: 60; Plant response rating, Barnyardgrass (0 to 100 scale, 0 is no effect, 100 is complete control) [16]: 0; Plant response rating, Ducksalad (0 to 100 scale, 0 is no effect, 100 is complete control) [17]: 0; Plant response rating, Rice (0 to 100 scale, 0 is no effect, 100 is complete control) (rice (Oryza sativa)): 0; Plant response rating, Sedge, Umbrella (0 to 100 scale, 0 is no effect, 100 is complete control) [18]: 0 |
| CO/N=C(\c1ccccc1C#N)c1c(O)c(C)nn(C)c1=O [Compound 76] | 0 | 0 | 0 | 0 | 0 | 0 | 0 | 0 | 0 | 10 | 0 | 0 | 30 | 20 | 20 | 20 | 0 | 0 | 0 | 0 | Foxtail, Giant plant response rating (0 to 100 scale) [10]: 0; Foxtail, Giant plant response rating [10]: 0; Galium plant response rating (0 to 100 scale) [11]: 70; Galium plant response rating [11]: 40; Kochia plant response rating (0 to 100 scale) (kochia (Kochia scoparia) [12]): 0; Kochia plant response rating (kochia (Kochia scoparia) [12]): 0; Pigweed plant response rating (0 to 100 scale) [13]: 70; Pigweed plant response rating [13]: 40; Ragweed plant response rating (0 to 100 scale) [14]: 60; Ragweed plant response rating [14]: 10; Wheat plant response rating (0 to 100 scale) [15]: 0; Wheat plant response rating [15]: 0; Plant response rating, Barnyardgrass (0 to 100 scale, 0 is no effect, 100 is complete control) [16]: 0; Plant response rating, Ducksalad (0 to 100 scale, 0 is no effect, 100 is complete control) [17]: 0; Plant response rating, Rice (0 to 100 scale, 0 is no effect, 100 is complete control) (rice (Oryza sativa)): 0; Plant response rating, Sedge, Umbrella (0 to 100 scale, 0 is no effect, 100 is complete control) [18]: 0 |
